Experimental data as given in patent US20240246913A1, “2-CARBOXYL-INDOLE INHIBITORS OF METALLO-BETA-LACTAMASES” (Oxford University Innovation Limited, priority 2021, published 2024).

Key:
VIM-2 = VIM-2 (Escherichia coli, UniProt Q5U7L7); assay: MBL inhibition, FC-5 fluorescence assay, VIM-2; assay type: biochemical; settings: FC-5 cephalosporin substrate, ranges of obtained pIC50, read-out: pIC50 VIM-2 (converted)
Procedure: (§1) Inhibitors were tested using a panel of the clinically relevant B1 MBLs (NDM-1, VIM-1, -2 and IMP-1). Activities were assayed by monitoring the release of a fluorophore following the enzymatic breakdown of the cephalosporin FC-5 (https://pubs.acs.org/doi/abs/10.1021/jm400769b). FC-5 assays were conducted in clear bottomed 384 black well microplates (Greiner); the initial rate of reaction was assessed by monitoring the fluorescence intensity (λex=380 nm and λem=460 nm) using a Pherstar FS (BMG LabTech) plate reader. Initial rates of reaction were determined and dose-response analyses conducted in GraphPad Prism. Dose-response curves were fitted using the log(inhibitor) vs normalized response—variable slope model of GraphPad Prism 12. Each concentration point for routine screening was conducted with 4 intra-plate replicates.

NDM-1 = NDM-1 (Klebsiella pneumoniae, UniProt C7C422); assay: MBL inhibition, FC-5 fluorescence assay, NDM-1; assay type: biochemical; settings: FC-5 cephalosporin substrate, fluorescence; ranges of obtained pIC50; read-out: pIC50 NDM-1 (converted)
Sequence of NDM-1 (C7C422 29-270, looked up, species assumed): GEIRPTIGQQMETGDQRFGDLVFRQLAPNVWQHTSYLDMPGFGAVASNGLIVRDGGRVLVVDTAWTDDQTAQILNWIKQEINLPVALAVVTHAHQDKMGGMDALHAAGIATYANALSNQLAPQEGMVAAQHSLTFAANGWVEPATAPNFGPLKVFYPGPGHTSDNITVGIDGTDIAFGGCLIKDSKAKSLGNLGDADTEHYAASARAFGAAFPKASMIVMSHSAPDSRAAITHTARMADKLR
Procedure: as §1

IMP-1 = IMP-1 (Serratia marcescens, UniProt P52699); assay: MBL inhibition, FC-5 fluorescence assay, IMP-1; assay type: biochemical; settings: FC-5 cephalosporin substrate, fluorescence; ranges of obtained pIC50; read-out: pIC50 IMP-1 (converted)
Sequence of IMP-1 (P52699 19-246, looked up, species assumed): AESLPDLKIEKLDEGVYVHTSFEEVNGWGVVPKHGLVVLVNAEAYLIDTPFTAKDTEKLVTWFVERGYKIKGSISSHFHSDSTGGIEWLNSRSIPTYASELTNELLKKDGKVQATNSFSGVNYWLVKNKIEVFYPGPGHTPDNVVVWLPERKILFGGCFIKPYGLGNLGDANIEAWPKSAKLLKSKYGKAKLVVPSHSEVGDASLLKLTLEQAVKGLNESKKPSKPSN
Procedure: as §1

VIM-1 = VIM-1 (Pseudomonas aeruginosa, UniProt A0A0F7KYQ8); assay: MBL inhibition, FC-5 fluorescence assay, VIM-1; assay type: biochemical; settings: FC-5 cephalosporin substrate, ranges of obtained pIC50, read-out: pIC50 VIM-1 (converted)
Procedure: as §1

[1] = tested on: Acinetobacter baumannii NDM-1; assay: Antibiotic susceptibility testing (MIC), AB NDM-1; assay type: cell-based; settings: agar or broth dilution (CLSI/EUCAST)
Procedure: (§2) Antibiotic susceptibility testing was performed using the agar or broth dilution method, in line with the Clinical and Laboratory Standards Institute (CLSI) and European Committee on Antimicrobial Susceptibility Testing (EUCAST) requirements.

Escherichia coli NDM-7 = assay: Antibiotic susceptibility testing (MIC), EC NDM-7; assay type: cell-based; settings: agar or broth dilution (CLSI/EUCAST)
Procedure: as §2

Escherichia coli NDM-1 = assay: Antibiotic susceptibility testing (MIC), EC NDM-1; assay type: cell-based; settings: agar or broth dilution (CLSI/EUCAST)
Procedure: as §2

[2] = Plasma protein binding, equilibrium dialysis, human plasma; assay type: in vitro ADME; settings: pH 7.4, equilibrium dialysis (RED) 4 hours at 37° C., read-out: Plasma protein binding, fu, Human
Procedure: The fraction of unbound compound (fu) in plasma from human or other animal species was determined by equilibrium dialysis at 37° C. for 4 hours using the Rapid Equilibrium Dialysis (RED) device (ThermoFisher Scientific). The test compound at a concentration of 10 μM was added to plasma and dialyzed against isotonic phosphate buffer (67 mM, pH 7.4) over 4 hours at 37° C. After dialysis, compound concentrations in buffer and plasma were quantified by LC-MS/MS. In parallel the stability of the compound in plasma was determined by incubating drug-spiked plasma (10 μM) at 37° C. for 4 hours, meanwhile the control plasma sample was kept in the freezer. The concentration of the compound in both samples was quantified by LC-MS/MS (Waters Corp, Milford, MA, USA).

Row | SMILES | IC50 (VIM-2) | IC50 (NDM-1) | IC50 (IMP-1) | IC50 (VIM-1) | MIC values AB NDM-1 [1] | MIC values EC NDM-7 (Escherichia coli NDM-7) | MIC values EC NDM-1 (Escherichia coli NDM-1) | fraction unbound at 4 h, 10 μM [2]
1 | C[C@@H](c1cccc2c(-c3ccncc3)c(C(=O)O)[nH]c12)N1C[C@]2(C[C@@H](CN)C2)OC1=O [IC-38, 3-(pyridin-4-yl)-7-[(1S)-1-[(2r,4r)-2-(aminomethyl)-6-oxo-5-oxa-7-azaspiro[3.4]octan-7-yl]ethyl]-1H-indole-2-carboxylic acid] | 0.1 to 1 nM | 0.1 to 1 nM | > 10 nM | 1 to 10 nM | B (B MIC values 2 ÷ 8) | A (A = MIC values ≤ 1) | A (A = MIC values ≤ 1) | 0.005 to 0.05
2 | C[C@@H](c1cccc2c(-c3ccn(C)c(=O)c3)c(C(=O)O)[nH]c12)N1C[C@]2(C[C@@H](CN)C2)OC1=O [IC-32, 3-(1-methyl-2-oxo-1,2-dihydropyridin-4-yl)-7-[(1S)-1-[(2r,4r)-2-(aminomethyl)-6-oxo-5-oxa-7-azaspiro[3.4]octan-7-yl]ethyl]-1H-indole-2-carboxylic acid] | 0.1 to 1 nM | 0.1 to 1 nM | > 10 nM | 1 to 10 nM | B (B MIC values 2 ÷ 8) | A (A = MIC values ≤ 1) | B (B MIC values 2 ÷ 8) | > 0.25
3 | COc1cc(-c2c(C(=O)O)[nH]c3c([C@H](C)N4C[C@]5(C[C@@H](CN)C5)OC4=O)cccc23)cnc1O [IC-25, 7-((S)-1-((2S,4r)-2-(aminomethyl)-6-oxo-5-oxa-7-azaspiro[3.4]octan-7-yl)ethyl)-3-(6-hydroxy-5-methoxypyridin-3-yl)-1H-indole-2-carboxylic acid] | 0.1 to 1 nM | > 10 nM | > 10 nM | > 10 nM | C (C = MIC values > 8) | B (B MIC values 2 ÷ 8) | C (C = MIC values > 8) | > 0.25
4 | CNc1ccc(-c2c(C(=O)O)[nH]c3c([C@H](C)N4C[C@]5(C[C@@H](CN)C5)OC4=O)cccc23)cn1 [IC-36, 3-[6-(methylamino)pyridin-3-yl]-7-[(1S)-1-[(2r,4r)-2-(aminomethyl)-6-oxo-5-oxa-7-azaspiro[3.4]octan-7-yl]ethyl]-1H-indole-2-carboxylic acid] | > 10 nM | > 10 nM | > 10 nM | > 10 nM | B (B MIC values 2 ÷ 8) | A (A = MIC values ≤ 1) | A (A = MIC values ≤ 1) | 0.05 to 0.25
5 | C[C@@H](c1cccc2c(-c3ccnc(N)c3)c(C(=O)O)[nH]c12)N1C[C@]2(C[C@@H](CN)C2)OC1=O [IC-34, 3-(2-Aminopyridin-4-yl)-7-[(1S)-1-[(2r,4r)-2-(aminomethyl)-6-oxo-5-oxa-7-azaspiro[3.4]octan-7-yl]ethyl]-1H-indole-2-carboxylic acid] | 1 to 10 nM | > 10 nM | > 10 nM | 1 to 10 nM | C (C = MIC values > 8) | A (A = MIC values ≤ 1) | B (B MIC values 2 ÷ 8) | > 0.25
6 | C[C@@H](c1cccc2c(-c3cccnc3)c(C(=O)O)[nH]c12)N1C[C@]2(C[C@@H](CN)C2)OC1=O [IC-39, 3-(pyridin-3-yl)-7-[(1S)-1-[(2r,4r)-2-(aminomethyl)-6-oxo-5-oxa-7-azaspiro[3.4]octan-7-yl]ethyl]-1H-indole-2-carboxylic acid] | 1 to 10 nM | 0.1 to 1 nM | > 10 nM | 0.1 to 1 nM | B (B MIC values 2 ÷ 8) | A (A = MIC values ≤ 1) | A (A = MIC values ≤ 1) | 0.005 to 0.05
7 | C[C@@H](c1cccc2c(-c3ccc(N)nc3)c(C(=O)O)[nH]c12)N1C[C@]2(C[C@@H](CN)C2)OC1=O [IC-37, 3-(6-aminopyridin-3-yl)-7-[(1S)-1-[(2r,4r)-2-(aminomethyl)-6-oxo-5-oxa-7-azaspiro[3.4]octan-7-yl]ethyl]-1H-indole-2-carboxylic acid] | 1 to 10 nM | 1 to 10 nM | > 10 nM | > 10 nM | B (B MIC values 2 ÷ 8) | A (A = MIC values ≤ 1) | A (A = MIC values ≤ 1) | 0.05 to 0.25
8 | C[C@@H](c1cccc2c(-c3cn[nH]c(=O)c3)c(C(=O)O)[nH]c12)N1C[C@]2(C[C@@H](CN)C2)OC1=O [IC-33, 3-(6-oxo-1,6-dihydropyridazin-4-yl)-7-[(1S)-1-[(2r,4r)-2-(aminomethyl)-6-oxo-5-oxa-7-azaspiro[3.4]octan-7-yl]ethyl]-1H-indole-2-carboxylic acid] | 0.1 to 1 nM | 1 to 10 nM | > 10 nM | 1 to 10 nM | B (B MIC values 2 ÷ 8) | A (A = MIC values ≤ 1) | A (A = MIC values ≤ 1) | 0.05 to 0.25
9 | C[C@@H](c1cccc2c(-c3ccc(CN4CCOCC4)nc3)c(C(=O)O)[nH]c12)n1cc(CN2CC(N)C2)oc1=O [IC-52, 7-[(1S)-1-{5-[(3-aminoazetidin-1-yl)methyl]-2-oxo-2,3-dihydro-1,3-oxazol-3-yl}ethyl]-3-{6-[(morpholin-4-yl)methyl]pyridin-3-yl}-1H-indole-2-carboxylic acid] | 1 to 10 nM | < 0.1 nM | > 10 nM | > 10 nM | C (C = MIC values > 8) | B (B MIC values 2 ÷ 8) | B (B MIC values 2 ÷ 8) | –
10 | C[C@@H](c1cccc2c(-c3c[nH]c(=O)c(F)c3)c(C(=O)O)[nH]c12)N1C[C@]2(C[C@@H](CN)C2)OC1=O [IC-26, 7-((1S)-1-(2-(aminomethyl)-6-oxo-5-oxa-7-azaspiro[3.4]octan-7-yl)ethyl)-3-(5-fluoro-6-oxo-1,6-dihydropyridin-3-yl)-1H-indole-2-carboxylic acid] | 0.1 to 1 nM | 1 to 10 nM | > 10 nM | > 10 nM | C (C = MIC values > 8) | A (A = MIC values ≤ 1) | B (B MIC values 2 ÷ 8) | 0.05 to 0.25
11 | COc1cc(-c2c(C(=O)O)[nH]c3c([C@H](C)N4CC5(CC(CN)C5)OC4=O)cccc23)ccn1 (stereo partly drawn) [IC-20, 7-((1S)-1-(2-(aminomethyl)-6-oxo-5-oxa-7-azaspiro[3.4]octan-7-yl)ethyl)-3-(2-methoxypyridin-4-yl)-1H-indole-2-carboxylic acid] | 0.1 to 1 nM | 0.1 to 1 nM | > 10 nM | 1 to 10 nM | B (B MIC values 2 ÷ 8) | A (A = MIC values ≤ 1) | A (A = MIC values ≤ 1) | –
12 | C/C(=C\C(=O)NCCc1c[nH]cn1)c1cccc2c(-c3ccc(CS(C)(=O)=O)c(F)c3)c(C(=O)O)[nH]c12 [IC-103, 3-[3-Fluoro-4-(methanesulfonylmethyl)phenyl]-7-[(1E)-1-{[2-(1H-imidazol-4-yl)ethyl]carbamoyl}prop-1-en-2-yl]-1H-indole-2-carboxylic acid] | > 10 nM | > 10 nM | > 10 nM | > 10 nM | C (C = MIC values > 8) | C (C = MIC values > 8) | C (C = MIC values > 8) | –
13 | C/C(=C\C(=O)N1CCOCC1)c1cccc2c(-c3ccc(CS(C)(=O)=O)c(F)c3)c(C(=O)O)[nH]c12 [IC-105, 3-[3-Fluoro-4-(methanesulfonylmethyl)phenyl]-7-[(2E)-4-(morpholin-4-yl)-4-oxobut-2-en-2-yl]-1H-indole-2-carboxylic acid] | > 10 nM | > 10 nM | > 10 nM | > 10 nM | C (C = MIC values > 8) | C (C = MIC values > 8) | C (C = MIC values > 8) | –
